Data from PMC7381750, “JP1 suppresses proliferation and metastasis of melanoma through MEK1/2 mediated NEDD4L-SP1-Integrin αvβ3 signaling” (Theranostics, 2020).
Values joined by “and” are separate entries in the source; they are usually repeats but may differ in a detail not shown here. Equal entries are not always repeated. Non-standard residues stand in square brackets, D forms with d. Residues, ends and D or L forms follow the SMILES beside them. pS = N[C@@H](COP(=O)(O)O)C(=O)O

Columns and labels:
[1] = Cynomolgus monkey toxicity test: blood coagulation; assay type: in vivo
Description: (§1) The test was completed by Suzhou Xishan Zhongke Drugs Research and Development Co., Ltd. (Xishan, Suzhou, China). The study proposal was approved by the Institute Animal Care and Use Committee (IACUC, ID19012912). Cynomolgus monkeys (3-4 years old) were randomly divided into three groups (n = 4 per group, half male and female); and the monkeys were treated with solvent control (Mannitol in saline, 75 mg/kg/d), JP1 (45 mg/kg/day) and JP1 (150 mg/kg/day) for 14 days. The experiment was ended on 15th day and the animals were euthanasia. The relevant clinical parameters were determined on 7th and 13th day, respectively. The observed parameters were including clinical symptoms, weight, food intake, body temperature, ophthalmology, electrocardiogram, blood routine examination, blood biochemistry, blood coagulation, urinalysis, immunotoxicity.
(§2) Supplementary database files: Cynomolgus monkey toxicity test […]
(§3) The study was conducted by a contract service in Suzhou Xishan Zhongke Drugs Research and Development Co., Ltd. (Xishan, Suzhou, China). All the use of animals were approved by the Institute Animal Care and Use Commttee, IACUC. IACUC no. :
(§4) ID19012912. The veterinarian will supervise the breeding and welfare of the animals. The company follows the Guide for the Care and Use of Laboratory Animals (8th ed., 2011).
(§5) Cynomolgus monkeys (3-4 years old) were randomly divided into three groups (n = 4 per group, two males and two females for each group); and treated q.d./i.v. with Mannitol (75 mg/kg/d in saline), JP1 (45 mg/kg/d) and JP1 (150 mg/kg/d) for 14 days, respectively. JP1 was dissolved in saline (100 mg/2 ml) and administered intravenously at a rate of 3 ml/min.
(§6) The JP1 was provided by Hybio Pharmaceutical Co., Ltd. (Shenzhen, China); the production of small packaging preparation (100 mg/vial in freeze-dried powder, purity > 98%; -20 °C for storage and transportation) was completed under strict GMP conditions and quality control procedures for biological preparations. No recovery period was set for this test; the experimental model was ended on 15th day. The relevant clinical indicators including symptoms, body weight, food intake, temperature, ophthalmology, electrocardiogram, blood routine examination, blood biochemistry, blood coagulation, urinalysis, immunotoxicity were determined on 7th and 13th, respectively. […]
(§7) indicators in all animals, and the pathological observation of organs was not determined. […]
(§8) relevant clinical indicators in two JP1 groups were no difference compared with those in […]
(§9) Level (NOAEL) of JP1 was 150 mg/kg.

[2] = Preliminary pharmacokinetic analysis in SD rats
Description: The drug half-life (t1/2) is calculated by the formula t1/2 = 0.693/k, where k is the elimination rate constant (k = (Inc1-Inc2)/(t2-t1)).

[3] = 14-day cynomolgus monkey toxicity test (overall); assay type: in vivo
Description: as §1, with “The observed parameters were including clinical symptoms, weight, food intake, body temperature, ophthalmology, electrocardiogram, blood routine examination, blood biochemistry, blood coagulation, urinalysis, immunotoxicity.” left out
as §6, with “No recovery period was set for this test; the experimental model was ended on 15th day.” left out
as §7

[4] = Cynomolgus monkey toxicity test: blood routine examination; assay type: in vivo
Description: as §1, §2, §3, §4, §5, §6, §7, §8, §9

[5] = JP1 45 mg/kg/d i.v., D7, monkeys 1105,1106,2107,2108, 45 mg/kg/day
[6] = JP1 45 mg/kg/d i.v., D13, monkeys 1105,1106,2107,2108, 45 mg/kg/day
[7] = JP1 150 mg/kg/d i.v., D7, monkeys 1209,1210,2211,2212, 150 mg/kg/day
[8] = JP1 150 mg/kg/d i.v., D13, monkeys 1209,1210,2211,2212, 150 mg/kg/day
[9] = male, Sprague-Dawley, rat, blood, ip, 100 mg/kg
[10] = JP1 150 mg/kg/d i.v., D7, monkeys 1209,1210,2211,2212

CC(=O)N[C@@H](Cc1ccccc1)C(=O)N1CCC[C@H]1C(=O)NCC(=O)N[C@@H](COP(=O)(O)O)C(=O)N[C@@H](CC(=O)O)C(=O)N[C@@H](CCCNC(=N)N)C(=O)N[C@@H](Cc1ccccc1)C(=O)NCC(=O)NCC(=O)NCC(=O)NCC(=O)N[C@@H](CCCNC(=N)N)C(=O)NCC(=O)N[C@@H](CC(=O)O)C(N)=O [JP1] (Ac-FPG[pS]DRFGGGGRGD-NH2)
APTT [1, 5]: 23.2 s and 28.0 s and 25.5 s and 25.1 s | FIB [1, 5]: 2.59 g/L and 2.84 g/L and 2.33 g/L and 2.34 g/L | PT [1, 5]: 11.8 s and 11.0 s and 12.2 s and 11.9 s | APTT [1, 6]: 25.3 s and 24.6 s and 24.2 s and 22.6 s | FIB [1, 6]: 3.02 g/L and 2.81 g/L and 2.68 g/L and 2.51 g/L | PT [1, 6]: 11.7 s and 12.2 s and 10.9 s | APTT [1, 7]: 23.7 s and 25.2 s and 33.8 s and 27.7 s | FIB [1, 7]: 2.71 g/L and 3.21 g/L and 2.66 g/L and 2.89 g/L | PT [1, 7]: 11.8 s and 12.5 s and 11.7 s and 12.0 s | APTT [1, 8]: 23.5 s and 24.9 s and 29.9 s and 27.8 s | FIB [1, 8]: 2.90 g/L and 2.99 g/L and 2.97 g/L and 3.27 g/L | PT [1, 8]: 11.9 s and 12.4 s and 11.8 s and 11.7 s | elimination rate constant k ([2]; SD rats, 100 mg/kg i.p., from 0.25 h and 1 h concentrations): 0.526 | level at 0.25 h [2, 9]: 20500 ng/mL | level at 1 h [2, 9]: 13800 ng/mL | changes in detected parameters (clinical symptoms, weight, food intake, body temperature, ophthalmology, ECG, blood, urinalysis, immune-toxicity) ([3]; I.V. 45 or 150 mg/kg/day for 14 days, compared to control): no significant changes in all detected parameters | NOAEL at 14 days ([3]; both sexes, in vivo, iv, 14 days, read-out: no observed adverse effect level (NOAEL)): 150 mg/kg | BASO % [4, 5]: 0.1% and 0.0% | EO % [4, 5]: 0.4% and 0.0% and 0.9% and 0.5% | HCT [4, 5]: 34.5% and 36.0% and 39.6% and 37.9% | HGB [4, 5]: 118 g/L and 111 g/L and 119 g/L and 104 g/L | LYMPH % [4, 5]: 17.9% and 15.8% and 30.8% and 26.7% | MCH [4, 5]: 23.1 pg and 24.5 pg and 23.4 pg and 23.2 pg | MCHC [4, 5]: 311 g/L and 308 g/L and 301 g/L | MCV [4, 5]: 79.5 fL and 77.0 fL and 78.0 fL and 74.3 fL | MONO % [4, 5]: 2.6% and 2.2% and 3.8% and 2.0% | NEUT % [4, 5]: 81.6% and 79.8% and 64.5% and 70.2% | NEUT# [4, 5]: 9.22 109/L and 12.27 109/L and 11.67 109/L and 7.64 109/L | PLT [4, 5]: 476 109/L and 539 109/L and 485 109/L and 393 109/L | RBC [4, 5]: 5.10 1012/L and 4.53 1012/L and 5.08 1012/L and 4.48 1012/L | RET% [4, 5]: 0.68% and 2.83% and 1.78% and 2.67% | WBC [4, 5]: 15.04 109/L and 11.55 109/L and 18.07 109/L and 10.87 109/L | BASO % [4, 6]: 0.0% and 0.1% | EO % [4, 6]: 1.2% and 1.9% and 0.3% and 2.5% | HCT [4, 6]: 40.1% and 36.5% and 39.2% and 42.2% | HGB [4, 6]: 121 g/L and 113 g/L and 115 g/L and 127 g/L | LYMPH % [4, 6]: 39.5% and 40.7% and 28.2% and 42.7% | MCH [4, 6]: 25.3 pg and 23.1 pg and 23.9 pg and 23.3 pg | MCHC [4, 6]: 302 g/L and 310 g/L and 293 g/L and 301 g/L | MCV [4, 6]: 83.7 fL and 74.5 fL and 81.5 fL and 77.4 fL | MONO % [4, 6]: 7.1% and 3.5% and 4.4% and 4.8% | NEUT % [4, 6]: 52.2% and 53.8% and 67.0% and 49.9% | PLT [4, 6]: 449 109/L and 489 109/L and 561 109/L and 590 109/L | RBC [4, 6]: 4.79 1012/L and 4.90 1012/L and 4.81 1012/L and 5.45 1012/L | RET% [4, 6]: 3.65% and 0.95% and 3.41% and 1.99% | BASO % [4, 10]: 0.1% | BASO# [4, 10]: 0.01 109/L | EO % [4, 7]: 0.1% and 0.4% and 0.6% | HCT [4, 7]: 37.0% and 38.5% and 37.2% and 34.6% | HGB [4, 7]: 117 g/L and 112 g/L and 110 g/L and 106 g/L | LYMPH# [4, 7]: 3.39 109/L and 3.63 109/L and 4.19 109/L and 2.35 109/L | MCH [4, 7]: 24.4 pg and 23.3 pg and 23.4 pg and 21.8 pg | MCHC [4, 7]: 316 g/L and 291 g/L and 296 g/L and 306 g/L | MCV [4, 7]: 77.2 fL and 80.0 fL and 79.1 fL and 71.2 fL | MONO % [4, 7]: 3.4% and 4.0% and 2.4% | MONO# [4, 7]: 0.53 109/L and 0.65 109/L and 0.50 109/L and 0.39 109/L | NEUT % [4, 7]: 74.4% and 77.1% and 61.7% and 82.9% | NEUT# [4, 7]: 11.48 109/L and 14.75 109/L and 7.71 109/L and 13.42 109/L | PLT [4, 7]: 457 109/L and 540 109/L and 391 109/L and 474 109/L | RBC [4, 7]: 4.79 1012/L and 4.81 1012/L and 4.70 1012/L and 4.86 1012/L | RET# [4, 7]: 44.1 109/L and 70.7 109/L and 81.8 109/L and 74.4 109/L | RET% [4, 7]: 0.92% and 1.47% and 1.74% and 1.53% | WBC [4, 7]: 15.42 109/L and 19.12 109/L and 12.48 109/L and 16.18 109/L | BASO % [4, 8]: 0.1% and 0.0% | EO % [4, 8]: 1.7% and 0.3% and 0.8% and 1.5% | HCT [4, 8]: 38.8% and 38.3% and 37.7% and 36.9% | HGB [4, 8]: 109 g/L and 115 g/L and 121 g/L and 111 g/L | LYMPH % [4, 8]: 30.4% and 27.4% and 43.1% and 40.0% | LYMPH# [4, 8]: 4.07 109/L and 5.06 109/L and 2.56 109/L and 4.46 109/L | MCH [4, 8]: 23.7 pg and 21.4 pg and 24.5 pg and 23.8 pg | MCHC [4, 8]: 295 g/L and 296 g/L and 316 g/L and 294 g/L | MCV [4, 8]: 80.2 fL and 72.3 fL and 77.7 fL and 80.9 fL | MONO % [4, 8]: 6.3% and 6.4% and 4.1% and 7.8% | NEUT % [4, 8]: 65.9% and 52.0% and 50.6% and 61.5% | PLT [4, 8]: 357 109/L and 548 109/L and 451 109/L and 510 109/L | RBC [4, 8]: 4.60 1012/L and 5.37 1012/L and 4.93 1012/L and 4.66 1012/L | RET% [4, 8]: 1.63% and 2.23% and 2.58% and 1.36% | WBC [4, 8]: 9.44 109/L and 12.65 109/L and 8.41 109/L and 16.30 109/L
